# Reference: patent US20060069132A1, “Azolecarboxamide herbicides” (priority 2004, published 2006)
# Columns and labels:
# giant foxtail (SETFA) = assay: Test J Compounds 2 and 6 alone and in combination with other herbicides, foliage spray; type: in vivo, Setaria faberi; set-up: key: 0 = no effect, 100 = complete control; conditions: applied alone
# Description: (§1) Seeds of test plants consisting of barnyardgrass (ECHCG; Echinochloa crus-galli (L.) Beauv.), blackgrass (ALOMY; Alopecurus myosuroides Huds.), Surinam grass (BRADC; Urochloa decumbens (Staph) R. D. Webster, previously named Brachiaria decumbens Stapf), cocklebur (XANST, Xanthium strumarium L.), corn (ZEAMD, Zea mays L. cv. ‘Pioneer 33G26’), large crabgrass (DIGSA, Digitaria sanguinalis (L.) Scop.), giant foxtail (SETFA, Setaria faberi Herrm.), lambsquarters (CHEAL, Chenopodium album L.), morningglory (IPOCO, Ipomoea coccinea L.), pigweed (AMARE, Amaranthus retroflexus L.), velvetleaf (ABUTH, Abutilon theophrasti Medik.) wheat (TRZAS, Triticum aestivum L. cv. ‘Recital’) and wild oat (AVEFA, Avena fatua L.) were planted in Redi-Earth® planting medium (Scotts Company, 14111 Scottslawn Road, Marysville, Ohio 43041) comprising spaghnum peat moss and vermiculite. Seeds of small-seeded species were planted about 1 cm deep; larger seeds were planted about 2.5 cm deep. Plants were grown in a greenhouse using supplemental lighting to maintain a photoperiod of about 14 hours; daytime and nighttime temperatures were about 24-30° C. and 22-25° C., respectively. Balanced fertilizer was applied through the watering system. […] Also listed in Table J are the expected effects for the mixtures calculated using Colby's Equation.
# corn (ZEAMD) = assay: as above; type: in vivo, Zea mays; set-up: key: percentage herbicidal effect (observed); conditions: applied alone
# Description: Colby's Equation was used to calculate the expected additive herbicidal effect of the mixtures of Compound 6 with Harmony® Extra (i.e. a 2:1 mixture by weight of thifensulfuron-methyl and tribenuron-methyl). […]
# as §1, with “vermiculite.” for “vermiculite. Seeds of small-seeded species were planted about 1 cm deep; larger seeds were planted about 2.5 cm deep. Plants were grown in a greenhouse using supplemental lighting to maintain a photoperiod of about 14 hours; daytime and nighttime temperatures were about 24-30° C. and 22-25° C., respectively. Balanced fertilizer was applied through the watering system.”
# barnyardgrass (ECHCG) = assay: as above; type: in vivo, Echinochloa crus-galli; set-up: key to ECHCG Obsd.: percentage herbicidal effect (observed); conditions: for ECHCG Obsd.: applied alone
# Description: Colby's Equation was used to calculate the expected additive herbicidal effect of the mixtures of Compound 6 with Harmony® Extra (i.e. a 2:1 mixture by weight of thifensulfuron-methyl and tribenuron-methyl). Colby's Equation (Colby, S. R. “Calculating Synergistic and Antagonistic Responses of Herbicide Combinations,” Weeds, 15(1), pp 20-22 (1967)) calculates the expected additive effect of herbicidal mixtures, and for two active ingredients is of the form: Pa+b=Pa+Pb−(PaPb/100) wherein • Pa+b is the percentage effect of the mixture expected from additive contribution of the individual components, • Pa is the observed percentage effect of the first active ingredient at the same use rate as in the mixture, and • Pb is the observed percentage effect of the second active ingredient at the same use rate as in the mixture.
# as §1, with “respectively.” for “respectively. Balanced fertilizer was applied through the watering system.”
# catchweed bedstraw = assay: Test F pre-/postemergence herbicide test; type: in vivo, Gallium aparine
# Description: (§2) Seeds of plant species selected from annual blugrass (Poa annua L.), blackgrass (Alopecurus myosuroides Huds.), catchweed bedstraw (Gallium aparine L.), common chickweed (Stellaria media (L.) Vill./Cyr.), downy bromegrass (Bromus tectorum L.), green foxtail (Setaria viridis (L.) Beauv.), Italian ryegrass (Lolium multiflorum Lam.), kochia (Kochia scoparia (L.). Schrad.), lambsquarters (Chenopodium album L.), littleseed canarygrass (Phalaris minor Retz.), pigweed (Amaranthus retroflexus L.), Russian thistle (Salsola kali L. ssp. Ruthenica (Iljin) Soo), wild buckwheat (Polygonum convolvulus L.), wild mustard (Sinapis arvensis L.), wild oat (Avena fatua L.), windgrass (Apera spica-venti (L.) Beauv.), winter barley (Hordeum vulgare L.), and wheat (Triticum aestivum L.) were planted and treated preemergence with test chemicals formulated in a non-phytotoxic solvent mixture which included a surfactant.
# (§3) At the same time, plants selected from these crop and weed species were treated with postemergence applications of some of the test chemicals formulated in the same manner. Plants ranged in height from 2 to 18 cm (1- to 4-leaf stage) for postemergence treatments. Treated plants and controls were maintained in a greenhouse for 12 to 14 days, after which time all species were compared to controls and visually evaluated. Plant response ratings, summarized in Table F, are based on a scale of 0 to 100 where 0 is no effect and 100 is complete control. A dash (-) response means no test result.
# windgrass = assay: Test F pre-/postemergence herbicide test; type: in vivo, Apera spica-venti
# Description: as §2, §3
# littleseed canarygrass = assay: Test F pre-/postemergence herbicide test; type: in vivo, Phalaris minor
# Description: as §2, §3
# common chickweed = assay: Test F pre-/postemergence herbicide test; type: in vivo, Stellaria media
# Description: as §2, §3
structure (smiles),measurement,setting,value
"CCn1nc(C(C)(C)C)cc1C(=O)Nc1cc(C(=O)N(C)C)ccc1F [Compound 6, N-[5-[(dimethylamino)carbonyl]-2-fluorophenyl]-3-(1,1-dimethylethyl)-1-ethyl-1H-pyrazole-5-carboxamide]",SETFA Obsd.,giant foxtail (SETFA); 62 g a.i./ha,15
same,SETFA Obsd.,giant foxtail (SETFA); 125 g a.i./ha,33
same,ZEAMD Obsd.,corn (ZEAMD); 62 g a.i./ha,22
same,ZEAMD Obsd.,corn (ZEAMD); 125 g a.i./ha,28
same,ECHCG Obsd.,barnyardgrass (ECHCG); 62 g a.i./ha,17
same,ECHCG Obsd.,barnyardgrass (ECHCG); 125 g a.i./ha,63
same,observed effect of mixture compared with additive effect expected from Colby's Equation,"barnyardgrass (ECHCG); mixture with terbacil, barnyardgrass, foliage spray, 15 days after treatment",greater than additive
CCn1nc(C(C)(C)C)cc1C(=O)Nc1cc(C(=O)OC(C)C)c(F)cc1F [Compound 248],"Plant response rating (0-100), Galium","catchweed bedstraw; Postemergence, 31 g ai/ha",50
same,"Plant response rating (0-100), Galium","catchweed bedstraw; Postemergence, 62 g ai/ha",50
same,"Plant response rating (0-100), Galium","catchweed bedstraw; Postemergence, 125 g ai/ha",60
same,"Plant response rating (0-100), Galium","catchweed bedstraw; Postemergence, 250 g ai/ha",60
same,"Plant response rating (0-100), Galium","catchweed bedstraw; Preemergence, 31 g ai/ha",30
same,"Plant response rating (0-100), Galium","catchweed bedstraw; Preemergence, 62 g ai/ha",50
same,"Plant response rating (0-100), Galium","catchweed bedstraw; Preemergence, 125 g ai/ha",50
same,"Plant response rating (0-100), Galium","catchweed bedstraw; Preemergence, 250 g ai/ha",60
same,"Plant response rating (0-100), Windgrass","windgrass; Postemergence, 31 g ai/ha",50
same,"Plant response rating (0-100), Windgrass","windgrass; Postemergence, 62 g ai/ha",50
same,"Plant response rating (0-100), Windgrass","windgrass; Postemergence, 125 g ai/ha",50
same,"Plant response rating (0-100), Windgrass","windgrass; Postemergence, 250 g ai/ha",50
same,"Plant response rating (0-100), Windgrass","windgrass; Preemergence, 31 g ai/ha",70
same,"Plant response rating (0-100), Windgrass","windgrass; Preemergence, 62 g ai/ha",70
same,"Plant response rating (0-100), Windgrass","windgrass; Preemergence, 125 g ai/ha",100
same,"Plant response rating (0-100), Windgrass","windgrass; Preemergence, 250 g ai/ha",100
same,"Plant response rating (0-100), Canarygrass","littleseed canarygrass; Postemergence, 31 g ai/ha",35
same,"Plant response rating (0-100), Canarygrass","littleseed canarygrass; Postemergence, 62 g ai/ha",40
same,"Plant response rating (0-100), Canarygrass","littleseed canarygrass; Postemergence, 125 g ai/ha",40
same,"Plant response rating (0-100), Canarygrass","littleseed canarygrass; Postemergence, 250 g ai/ha",45
same,"Plant response rating (0-100), Canarygrass","littleseed canarygrass; Preemergence, 31 g ai/ha",40
same,"Plant response rating (0-100), Canarygrass","littleseed canarygrass; Preemergence, 62 g ai/ha",45
same,"Plant response rating (0-100), Canarygrass","littleseed canarygrass; Preemergence, 250 g ai/ha",75
same,"Plant response rating (0-100), Chickweed","common chickweed; Postemergence, 31 g ai/ha",65
same,"Plant response rating (0-100), Chickweed","common chickweed; Postemergence, 62 g ai/ha",65
same,"Plant response rating (0-100), Chickweed","common chickweed; Postemergence, 125 g ai/ha",98
same,"Plant response rating (0-100), Chickweed","common chickweed; Postemergence, 250 g ai/ha",100
same,"Plant response rating (0-100), Chickweed","common chickweed; Preemergence, 31 g ai/ha",100
same,"Plant response rating (0-100), Chickweed","common chickweed; Preemergence, 62 g ai/ha",100
same,"Plant response rating (0-100), Chickweed","common chickweed; Preemergence, 125 g ai/ha",100
same,"Plant response rating (0-100), Chickweed","common chickweed; Preemergence, 250 g ai/ha",100
